# From PubChem BioAssay AID248 (DTP/NCI, 2004)
# “And” between values parts separate entries of the source, which are not always exact repeats. Identical values can stand only once. Toxic doses and inconclusive results are not listed.
# Test system: L1210 leukemia ip in BDF1 mice, survival T/C
# Assay: NCI In Vivo Anticancer Drug Screen. Data for tumor model L1210 Leukemia (intraperitoneal) in B6D2F1 (BDF1) mice
# Settings: endpoint: mean survival time, higher = longer survival
# Outline: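 Tumor cells were implanted, animals were treated, and survival was followed. The result divides the treated measurement by the vehicle-control measurement.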
# [1] = dose: 100.0 mg/kg/injection, schedule: Q01DX009 (ip), vehicle: saline with Tween-80
# [2] = dose: 100.0 mg/kg/injection, schedule: Q04DX003 (ip), vehicle: saline with Tween-80
# [3] = dose: 200.0 mg/kg/injection, schedule: Q01DX009 (ip), vehicle: saline with Tween-80
# [4] = dose: 200.0 mg/kg/injection, schedule: Q04DX003 (ip), vehicle: saline with Tween-80
# [5] = dose: 400.0 mg/kg/injection, schedule: Q01DX009 (ip), vehicle: saline with Tween-80
# [6] = dose: 400.0 mg/kg/injection, schedule: Q04DX003 (ip), vehicle: saline with Tween-80
# [7] = dose: 25.0 mg/kg/injection, schedule: Q01DX009 (ip), vehicle: Klucel (hydroxypropylcellulose) (HPC)
# [8] = dose: 50.0 mg/kg/injection, schedule: Q01DX009 (ip), vehicle: Klucel (hydroxypropylcellulose) (HPC)
smiles,measurement,setting,value
CCCCN(C)/N=N\c1[nH]ncc1C(N)=O,T/C,"dose: 8.5 mg/kg/injection, schedule: Q01DX009 (ip), vehicle: saline with Tween-80",119 % of control
same,T/C,"dose: 13.0 mg/kg/injection, schedule: Q01DX009 (ip), vehicle: saline with Tween-80",104 % of control
same,T/C,"dose: 16.25 mg/kg/injection, schedule: Q01DX009 (ip), vehicle: saline with Tween-80",115 % of control
same,T/C,"dose: 20.0 mg/kg/injection, schedule: Q01DX009 (ip), vehicle: saline with Tween-80",115 % of control
same,T/C,"dose: 30.5 mg/kg/injection, schedule: Q04DX003 (ip), vehicle: saline with Tween-80",100 % of control
same,T/C,"dose: 44.0 mg/kg/injection, schedule: Q01DX009 (ip), vehicle: other",165 % of control
same,T/C,"dose: 61.0 mg/kg/injection, schedule: Q04DX003 (ip), vehicle: saline with Tween-80",108 % of control
same,T/C,"dose: 65.0 mg/kg/injection, schedule: Q01DX009 (ip), vehicle: saline with Tween-80",157 % of control
same,T/C,"dose: 66.0 mg/kg/injection, schedule: Q01DX009 (ip), vehicle: other",184 % of control
same,T/C,"dose: 77.25 mg/kg/injection, schedule: Q01DX001 (ip), vehicle: saline with Tween-80",106 % of control
same,T/C,"dose: 122.0 mg/kg/injection, schedule: Q04DX003 (ip), vehicle: saline with Tween-80",119 % of control
same,T/C,"dose: 150.0 mg/kg/injection, schedule: Q01DX009 (ip), vehicle: other",114 % of control
same,T/C,"dose: 154.5 mg/kg/injection, schedule: Q01DX001 (ip), vehicle: saline with Tween-80",117 % of control
same,T/C,"dose: 309.0 mg/kg/injection, schedule: Q01DX001 (ip), vehicle: saline with Tween-80",114 % of control
CCOP(=O)(SCC)N(CC)CC (configuration not stated),T/C,"dose: 5.0 mg/kg/injection, schedule: Q01DX001 (ip), vehicle: saline",108 % of control
same,T/C,"dose: 10.0 mg/kg/injection, schedule: Q01DX001 (ip), vehicle: saline",104 % of control
same,T/C,"dose: 20.0 mg/kg/injection, schedule: Q01DX001 (ip), vehicle: saline",104 % of control
same,T/C,"dose: 40.0 mg/kg/injection, schedule: Q01DX001 (ip), vehicle: saline",115 % of control
same,T/C,"dose: 80.0 mg/kg/injection, schedule: Q01DX001 (ip), vehicle: saline",106 % of control
c1cc(C2CCCCC2)ccc1-c1ccc(C2CCCCC2)cc1,T/C,[1],94 % of control
same,T/C,[2],98 % of control
same,T/C,[3],94 % of control
same,T/C,[4],101 % of control
same,T/C,[5],97 % of control
same,T/C,[6],90 % of control
CC(=O)/C(C)=N/Nc1ccccc1,T/C,[2],101 % of control
same,T/C,[4],106 % of control
same,T/C,[6],106 % of control
N#CCCc1c(-c2ccccc2)nc(N)[nH]c1=O,T/C,"dose: 100.0 mg/kg/injection, schedule: Q04DX003 (ip), vehicle: carboxymethylcellulose (CMC)",92 % of control
same,T/C,"dose: 200.0 mg/kg/injection, schedule: Q04DX003 (ip), vehicle: carboxymethylcellulose (CMC)",92 % of control
same,T/C,"dose: 400.0 mg/kg/injection, schedule: Q04DX003 (ip), vehicle: carboxymethylcellulose (CMC)",87 % of control
O=C1C=CCC2c3nc4ccccc4cc3CN12 (configuration not stated),T/C,"dose: 37.5 mg/kg/injection, schedule: Q04DX003 (ip), vehicle: saline",95 % of control
same,T/C,"dose: 75.0 mg/kg/injection, schedule: Q04DX003 (ip), vehicle: saline",93 % of control
same,T/C,"dose: 150.0 mg/kg/injection, schedule: Q04DX003 (ip), vehicle: saline",95 % of control
Cc1ccc(NC(=O)COc2cc(Cl)c(Cl)cc2Cl)cc1[N+](=O)[O-],T/C,[7],86 % of control
same,T/C,[8],100 % of control
same,T/C,"dose: 75.0 mg/kg/injection, schedule: Q01DX009 (ip), vehicle: Klucel (hydroxypropylcellulose) (HPC)",100 % of control and 92 % of control
C/C(CC(c1ccccc1)N1CCc2ccccc2C1)=N/O (configuration not stated),T/C,"dose: 100.0 mg/kg/injection, schedule: Q01DX009 (ip), vehicle: saline sonified",94 % of control
same,T/C,"dose: 100.0 mg/kg/injection, schedule: Q04DX003 (ip), vehicle: saline",105 % of control
same,T/C,"dose: 200.0 mg/kg/injection, schedule: Q01DX009 (ip), vehicle: saline sonified",94 % of control
same,T/C,"dose: 200.0 mg/kg/injection, schedule: Q04DX003 (ip), vehicle: saline",104 % of control
same,T/C,"dose: 400.0 mg/kg/injection, schedule: Q01DX009 (ip), vehicle: saline sonified",90 % of control
same,T/C,"dose: 400.0 mg/kg/injection, schedule: Q04DX003 (ip), vehicle: saline",112 % of control
O=S(=O)(NC(=S)Nc1ccc(Cl)cc1)c1ccccc1,T/C,[2],110 % of control
same,T/C,[4],107 % of control
same,T/C,[6],93 % of control
C=C(Cl)CSc1ncnc2nc[nH]c12,T/C,"dose: 75.0 mg/kg/injection, schedule: Q01DX001 (ip), vehicle: saline",98 % of control
CC[n+]1cccc(NC(=O)c2ccc(NC(=O)c3ccc(C(=O)Nc4ccc(C(=O)Nc5ccc[n+](CC)c5)c(N)c4)cc3)cc2N)c1,T/C,"dose: 2.5 mg/kg/injection, schedule: Q01DX015 (ip), vehicle: other",187 % of control
same,T/C,"dose: 5.0 mg/kg/injection, schedule: Q01DX015 (ip), vehicle: other",264 % of control
same,T/C,"dose: 8.0 mg/kg/injection, schedule: Q01DX015 (ip), vehicle: other",246 % of control
same,T/C,"dose: 10.0 mg/kg/injection, schedule: Q01DX015 (ip), vehicle: other",150 % of control
same,T/C,"dose: 22.0 mg/kg/injection, schedule: Q01DX001 (ip), vehicle: other",156 % of control
same,T/C,"dose: 22.0 mg/kg/injection, schedule: Q01DX015 (ip), vehicle: other",114 % of control
same,T/C,"dose: 25.0 mg/kg/injection, schedule: Q01DX001 (ip), vehicle: other",174 % of control
same,T/C,"dose: 33.0 mg/kg/injection, schedule: Q01DX001 (ip), vehicle: other",168 % of control
same,T/C,"dose: 37.0 mg/kg/injection, schedule: Q01DX015 (ip), vehicle: other",90 % of control
same,T/C,"dose: 50.0 mg/kg/injection, schedule: Q01DX001 (ip), vehicle: other",203 % of control
same,T/C,"dose: 55.0 mg/kg/injection, schedule: Q01DX001 (ip), vehicle: other",219 % of control
same,T/C,"dose: 75.0 mg/kg/injection, schedule: Q01DX001 (ip), vehicle: other",212 % of control
O=C(CN1CCCCC1)c1ccc(/C=C/c2ccc(Cl)cc2)cc1,T/C,"dose: 12.5 mg/kg/injection, schedule: Q01DX009 (ip), vehicle: Klucel (hydroxypropylcellulose) (HPC)",93 % of control
same,T/C,[7],97 % of control
same,T/C,[8],87 % of control and 88 % of control
same,T/C,"dose: 100.0 mg/kg/injection, schedule: Q04DX003 (ip), vehicle: Klucel (hydroxypropylcellulose) (HPC)",88 % of control
same,T/C,"dose: 200.0 mg/kg/injection, schedule: Q04DX003 (ip), vehicle: Klucel (hydroxypropylcellulose) (HPC)",88 % of control
CC(O)(CC(=O)O)c1ccc([N+](=O)[O-])cc1 (configuration not stated),T/C,"dose: 50.0 mg/kg/injection, schedule: Q01DX001 (ip), vehicle: saline",96 % of control
same,T/C,"dose: 100.0 mg/kg/injection, schedule: Q01DX001 (ip), vehicle: saline",102 % of control
same,T/C,"dose: 200.0 mg/kg/injection, schedule: Q01DX001 (ip), vehicle: saline",108 % of control
same,T/C,"dose: 400.0 mg/kg/injection, schedule: Q01DX001 (ip), vehicle: saline",102 % of control
C=C1C(C(=O)OCC)C1C(=O)OCC (configuration not stated),T/C,"dose: 50.0 mg/kg/injection, schedule: Q04DX002 (ip), vehicle: saline with Tween-80",98 % of control
same,T/C,"dose: 100.0 mg/kg/injection, schedule: Q04DX002 (ip), vehicle: saline with Tween-80",103 % of control
same,T/C,"dose: 200.0 mg/kg/injection, schedule: Q04DX002 (ip), vehicle: saline with Tween-80",106 % of control
same,T/C,"dose: 400.0 mg/kg/injection, schedule: Q04DX002 (ip), vehicle: saline with Tween-80",98 % of control
COc1ccc(-c2ccccc2)cc1SCCC(=O)O,T/C,"dose: 50.0 mg/kg/injection, schedule: Q01DX001 (ip), vehicle: carboxymethylcellulose (CMC)",114 % of control
same,T/C,"dose: 100.0 mg/kg/injection, schedule: Q01DX001 (ip), vehicle: carboxymethylcellulose (CMC)",101 % of control
same,T/C,"dose: 200.0 mg/kg/injection, schedule: Q01DX001 (ip), vehicle: carboxymethylcellulose (CMC)",97 % of control
same,T/C,"dose: 400.0 mg/kg/injection, schedule: Q01DX001 (ip), vehicle: carboxymethylcellulose (CMC)",95 % of control
CCc1noc(CC)c1CC1=C2CCC3(C)CCC(C)(C)CC3C2(C)CCC1=O (configuration not stated),T/C,"dose: 100.0 mg/kg/injection, schedule: Q01DX001 (ip), vehicle: other",96 % of control
same,T/C,[1],93 % of control
same,T/C,"dose: 200.0 mg/kg/injection, schedule: Q01DX001 (ip), vehicle: other",94 % of control
same,T/C,[3],91 % of control
same,T/C,"dose: 400.0 mg/kg/injection, schedule: Q01DX001 (ip), vehicle: other",97 % of control
same,T/C,[5],90 % of control
